US5830903A, “Triazole substituted quinoline derivatives for gastrointestinal treat-treatment” (Alkaloida Chemical Co., Ltd., priority 1993, dated 1998)
Marks after values point to notes of the source that are not given here.

How the values were obtained:
[1] = test system: lesions caused by the NSAID naproxen; test: Naproxen-induced gastric erosions, test substance 1 hour after naproxen; assay type: in vivo, WISTAR rats; conditions: n = 7
Procedure: (§1) Administration of the test substances followed 1 hour after injection. After 4 hours the animals were over-anesthesized with ether and the changes (erosions) were evaluated as in Example I.1. The size of the lesions was characterized by way of the ulcer index.

Acute toxicity in rats = conditions: rat, in vivo, po, per os, 14 days
Procedure: (§2) To determine acute toxicity the test substances were administered in increasing doses to CFLP male mice (18-20 g) and to male Wistar rats (150-160 g). The LD50 values were calculated after 14 days of observation according to Litchfield and Wilcoxon.

[2] = test system: lesions caused by intomethacin; test: Indomethacin-induced gastric lesions; assay type: in vivo, female OFA-rats; conditions: Rattus norvegicus, po, 60 min before 20 mg/kg indomethacin; 6 h; from ulcer index; confidence limits 95%; read-out: ED50 mg/kg (p.o.)
Procedure: The compounds were administered in a volume of 0.5 ml/100 g in a suspension prepared in water with 2-4% Tween-80. After 6 hours the animals were over-anesthesized and their stomachs were opened along the greater curvature. The preparations were investigated by stereomicroscopy using an 8-fold enlargement. The number, size and incidence of erosions and ulcers was noted and compared with the control group treated with the carrier only.
The size of the ulcers was determined on the basis of the following score:
1: ulcer or erosion of the size of 1-2 mm;
2: ulcer or erosion of the size of 2-3 mm;
3: ulcer or erosion of the size of 3-4 mm;
4: ulcer longer than 4 mm;
5: ulcer longer and broader than 4 mm.
The ED50 values were calculated on the basis of ulcer-indexes:
ulcer index=/severeity of lesion x number of lesions/number of animals /n/

[3] = test system: ulcers induced by reserpine; test: Reserpine induced ulcers; assay type: in vivo, female OFA rats; conditions: 40 mg/kg p.o.; reserpine 5 mg/kg s.c.; 18 h
Procedure: Female OFA rats of 130-160 g weight, starved for 24 hours, were treated at the same time perorally with 40 mg/kg doses of the substances to be tested and with 5 mg/kg s.c. doses of reserpine. After 18 hours the animals were over-anesthesized and the removed stomachs were investigated under stereomicroscope using a 8-fold enlargement. The number of ulcers was counted and their size was evaluated using 0-0.5-1-2-4-8-16-32 scores. The number of animals was 5 for each dose.

[4] = test system: stress ulcer caused by immersion; test: Stress ulcer caused by immersion; assay type: in vivo, Wistar rats
Procedure: 30 minutes after peroral treatment with the test substance, […]. After seven hours the glandular lesions appearing in the stomach were evaluated according to the score described in Example I.1.

[5] = test system: lesions caused by the NSAID piroxicam; test: Piroxicam-induced gastric erosions, test substance 1 hour after piroxicam; assay type: in vivo, WISTAR rats; conditions: n = 7
Procedure: as §1

[6] = test system: basic gastric acid secretion; test: Basic gastric acid secretion in Shay rats (pylorus ligation); assay type: in vivo; conditions: for acidity μEqu/ml / volume: 4 h
Procedure: The pilorus of Shay rats of 150-170 g weight was tied in ether narcosis /Gastroenterology 5,43,1945/. The test substances were added on the course of operation intra-duodenally. Immediately after operation each rat obtained 0.50 ml s.c. of a physiological salt solution for hydration. After 4 hours the rats were over-anesthesized, the stomach liquid was collected, centrifugated and the volume determined. Acidity of the secretion was determined with 0.1N aqueous sodium hydroxide in the presence of a Tobfler reagent.

Acute toxicity in mice = conditions: mouse, in vivo, po, per os, 14 days
Procedure: as §2

[7] = test system: histamine stimulated hydrochlorid acid secretion; test: Histamine stimulated gastric acid secretion in Shay rats; assay type: in vivo; conditions: for acid secretion μEqu/4^h: p < 0.01
Procedure: The test substances were added on the course of operation intra-duodenally. Immediately after operation each rat obtained 0.50 ml s.c. of a physiological salt solution for hydration. After 4 hours the rats were over-anesthesized, the stomach liquid was collected, centrifugated and the volume determined. […] Measurement of stimulated secretion of gastric acid was also carried out according to the above method.

[8] = test system: lesions induced with hydrochloric acid and ethanol; test: Gastric haemorrhages induced by hydrochloric acid in ethanol (cytoprotection); assay type: in vivo, female rats; conditions: for average length of haemmorrhages, change in %: treated vs control
Procedure: The volume of treatment was 0.5 ml/100 g. […] The average degree of haemorrhages of the treated groups was compared to the control groups treated with the vehicle only. Number of animals was 6-18 in each group.

[9] = test system: alcohol induced increase of gastric glandular capillary permeability; test: Alcohol induced increase of gastric glandular capillary permeability; assay type: in vivo, rats; conditions: for Evans-blue: p < 0.05
Procedure: After 13 minutes 1 ml of 100% ethanol was added perorally and after further 2 minutes the stomachs were removed and their weights measured. […]

gastric blood-supply = test: Gastric blood-supply, Rb^86 isotope method (Sapirstain); assay type: in vivo, Wistar female rats; conditions: 100 mg/kg p.o., n = 11, ± SE
Procedure: To investigate influence of gastric blood-supply the tests were carried out according to the method of Sapirstain using Rb^86 isotopes (Circ.Res.4, 689, 1956; Am. J. Physiol. 193. 161,1958). The test substances were administered perorally 2 hours before the experiment started and the degree of blood flow was determined in ml/min/g values. In the experiments the stomachs of Wistar female rats were divided into three segments i.e. pre-stomach, corpus and anthrum.

[10] = naproxen 75 mg/kg po. + 20 mg/kg po.
[11] = 25 mg/kg p.o., n = 10, p < 0.01
[12] = histamine 10 mg/kg s.c. + 5 mg/kg i.d., p < 0.05

c1ccc2c(-n3cncn3)ccnc2c1 [Substance 1, 4-(1H-1,2,4-triazole-1-yl)-quinoline]
inhibition % [1, 10]: 39% | ulcus index ± SEM [1, 10]: 15.6 ± 6.4 | inhibition % ([1]; naproxen, 30 mg/kg po.): 95% | ulcus index ± SEM ([1]; naproxen, 30 mg/kg po., p < 0.01): 1.2 ± 0.5 | LD50 at 336 h (Acute toxicity in rats): 560 mg/kg | ED50 [2]: 13 mg/kg | number of ulcers, %change compared with control [3]: +4% | severity of ulcers, %change compared with control [3]: +9% | ulcers per treated [3]: 5/5 | erosion inhibition % ([4]; 10 mg/kg p.o., n = 7): 21% | erosion ulcus-index mm ([4]; 10 mg/kg p.o., n = 7): 33.6 ± 10.2 mm | hyperemia inhibition % ([4]; 10 mg/kg p.o., n = 7): 29% | hyperemia ulcer-index mm ([4]; 10 mg/kg p.o., n = 7): 64.3 ± 8.6 mm | erosion ulcus-index mm ([4]; 25 mg/kg p.o., n = 10): 12.1 ± 3.6 mm | hyperemia ulcer-index mm ([4]; 25 mg/kg p.o., n = 10): 35.8 ± 9.4 mm | erosion inhibition % [4, 11]: 71% | hyperemia inhibition % [4, 11]: 55% | erosion ulcus-index mm ([4]; 50 mg/kg p.o., n = 7): 5.7 ± 1.5 mm | hyperemia ulcer-index mm ([4]; 50 mg/kg p.o., n = 7): 11.4 ± 2.8 mm | erosion inhibition % ([4]; 50 mg/kg p.o., n = 7, p < 0.01): 87% | hyperemia inhibition % ([4]; 50 mg/kg p.o., n = 7, p < 0.01): 85% | inhibition of hyperemia and erosion (in words) ([4]; substance 1 at 50 mg/kg p.o., cimetidine): significally inhibit hyperemia and erosion | inhibition % ([5]; piroxicam 60 mg/kg po. + 20 mg/kg po.): 84% | ulcus index ± SEM ([5]; piroxicam 60 mg/kg po. + 20 mg/kg po., p < 0.05): 3.8 ± 0.4 | inhibition % ([5]; piroxicam, 30 mg/kg po.): 93% | ulcus index ± SEM ([5]; piroxicam, 30 mg/kg po., p < 0.01): 1.8 ± 0.5 | acidity μEqu/ml ([6]; dose 5 i.d.): 105 ± 5 μEqu/ml | volume ([6]; dose 5 i.d., p < 0.05): 1.4 ± 1.24 mL | acid secretion μEqu/4^h ([6]; dose 5 i.d., p < 0.05): 147.0 ± 0.19 μEqu/4^h | acidity μEqu/ml ([6]; dose 10 i.d., not possible to titrate part of the secretion because of small volume): 61 ± 5 μEqu/ml | volume ([6]; dose 10 i.d., p < 0.01): 0.58 ± 0.1 mL | acid secretion μEqu/4^h ([6]; dose 10 i.d., p < 0.01): 42.0 ± 0.3 μEqu/4^h | LD50 at 336 h (Acute toxicity in mice): 840 mg/kg | acid secretion μEqu/4^h ([7]; histamine 10 mg/kg s.c. + 5 mg/kg i.d.): 180 ± 12 μEqu/4^h | acidity μEqu/ml [7, 12]: 105 ± 10 μEqu/ml | volume/4^h [7, 12]: 1.7 ± 0.2 mL | acid secretion μEqu/4^h ([7]; histamine s.c. + 10 mg/kg i.d.): 111 ± 9 μEqu/4^h | acidity μEqu/ml ([7]; histamine s.c. + 10 mg/kg i.d., p < 0.05): 123 ± 8 μEqu/ml | average length of haemmorrhages, treated ([8]; 2.3 mg/kg p.o., n = 12, control 95.7 ± 9.4): 91.0 ± 9.4 mm | average length of haemmorrhages, change in % ([8]; 2.3 mg/kg p.o.): -4% | average length of haemmorrhages, treated ([8]; 5.0 mg/kg p.o., n = 18, control 92.9 ± 6.3): 39.7 ± 8.1 mm | average length of haemmorrhages, change in % ([8]; 5.0 mg/kg p.o.): -57% | average length of haemmorrhages, treated ([8]; 10.0 mg/kg p.o., n = 18, control 61.3 ± 9.8): 14.2 ± 7.4 mm | average length of haemmorrhages, change in % ([8]; 10.0 mg/kg p.o.): -77% | alcohol-induced lesions (in words) ([9]; 10 and 20 mg/kg): alcohol-induced lesions are reduced | stomach ([9]; 100% ethanol + 10 mg/kg): 0.91 ± 0.1 g | Evans-blue ([9]; 100% ethanol + 10 mg/kg): 4.55 ± 0.3 µg/g | stomach ([9]; 100% ethanol + 20 mg/kg): 0.93 ± 0.1 g | Evans-blue ([9]; 100% ethanol + 20 mg/kg): 4.4 ± 0.23 µg/g | blood flow, pre-stomach (gastric blood-supply; control 0.23 ± 0.03): 0.19 ± 0.01 mL/min/g | blood flow, corpus (gastric blood-supply; control 0.51 ± 0.03, p < 0.02): 0.70 ± 0.09 mL/min/g | blood flow, anthrum (gastric blood-supply; control 0.71 ± 0.07): 1.01 ± 0.07 mL/min/g
